SMILES strings stand for the structures.

In assay [1] the target is T1, pre-formed Aβ42-AChE fibrils complex (Homo sapiens, UniProt P22303).
T1 construct: purchased Roche (AChE); Aladdin (Aβ42) R005282 (AChE); A118755 (Aβ42)
Nature of the assay: Disaggregation of pre-formed Aβ42-AChE fibrils (ThT). The assay is classed as biochemical. The note with it: Aβ42 pre-aggregated with AChE for 2 days before co-incubation with AP5. Here is the method:
The effects of AP5 on Aβ fibril formation and pre-formed Aβ fibrils disaggregation were determined using a previously described method of Thioflavin T (ThT, T3516, Sigma Aldrich, St. Louis, MO, United States) fluorometry ([Jan et al., 2010]).
Supplementary materials and methods … ...1 […]
Supplementary Figure 1 … .....7
Supplementary Figure 2 … .....7
Supplementary materials and methods
Prepations ofspecimen for pharmacokinetics analysis
24 h afterdosing. Brains were collected at0, 0.25, 0.5,2, 4,8 and 24 h after administration.Plasma extractions were performed by adding 90 μL methanol and 2 μL internalstandard letrozole (500 ng/mL) to a30 µL plasma sample. […]
Then 90 μL methanol and 2 μL letrozolewere added to 30 µl brainhomogenates. The samples were vortexed for 3 min and centrifuged 15 min at25,000 g.The plasma and brainhomogenate were analyzed by UPLC-TSQ/MS (Thermo Fisher Scientific, Waltham, MA, USA). […]
To study the kinetics of Aβ-AChE fibril complex formation, 10 μM Aβ was mixed with AChE (R005282, Roche, Basel, Switzerland) and different concentrations AP5 and incubated with 10 μM ThT and 50 mM glycine-NaOH (pH 8.5) at 37°C, the ThT fluorescence was continually measured for 24 h at 30 min intervals. […] Fluorescence emission at485 nm was measured on a Spectra MAX GeminiXS fluorometerat an excitation wavelength of 450 nm. […]

The subject of assay [2] is spatial recognition memory. Nature of the assay: Y-maze. The assay is classed as in vivo. The note with it: after training for 3 h, relative to APP/PS1 mice. The procedure:
APP/PS1 mice of ages 6 months were randomly divided into vehicle (APP/PS1, n = 10) and treatment groups (AP5, n = 10), which were intragastrically administered with AP5 (40 mg/kg) once daily for consecutive 5 months. AP5 was dissolved in distilled water containing 1% sodium carboxymethyl cellulose.
To investigate whether AP5 treatment plays a key role in cognition improvement of APP/PS1 mice models, the five different behavioral tests were sequentially carried out in the following order: open field, novel object recognition task, spatial object-location task, Y-maze, and Morris water maze (MWM). AP5 was also administered daily during the test periods. […]
For the spatial object location task (an object moved to a new location), mice first explored the two objects placed in two corners of the open field for 5 min in training period. After 1 h or 24 h, the mice received a 5 min retention trial with a new spatial configuration with an object moved from one corner to the opposite corner of the open field.The discrimination index was calculated and defined as: (time spent exploring the displaced object-time spent exploring nondisplaced objects) / total exploration time for the two objects during the 5 min retention trial. […]
guided to platform and allowed to stay on it for 30 s. The time (escape latency) for each mouse to find the way and reach the target platform was analyzed. […]

T1 sequence (P22303 32-614, one chain of several): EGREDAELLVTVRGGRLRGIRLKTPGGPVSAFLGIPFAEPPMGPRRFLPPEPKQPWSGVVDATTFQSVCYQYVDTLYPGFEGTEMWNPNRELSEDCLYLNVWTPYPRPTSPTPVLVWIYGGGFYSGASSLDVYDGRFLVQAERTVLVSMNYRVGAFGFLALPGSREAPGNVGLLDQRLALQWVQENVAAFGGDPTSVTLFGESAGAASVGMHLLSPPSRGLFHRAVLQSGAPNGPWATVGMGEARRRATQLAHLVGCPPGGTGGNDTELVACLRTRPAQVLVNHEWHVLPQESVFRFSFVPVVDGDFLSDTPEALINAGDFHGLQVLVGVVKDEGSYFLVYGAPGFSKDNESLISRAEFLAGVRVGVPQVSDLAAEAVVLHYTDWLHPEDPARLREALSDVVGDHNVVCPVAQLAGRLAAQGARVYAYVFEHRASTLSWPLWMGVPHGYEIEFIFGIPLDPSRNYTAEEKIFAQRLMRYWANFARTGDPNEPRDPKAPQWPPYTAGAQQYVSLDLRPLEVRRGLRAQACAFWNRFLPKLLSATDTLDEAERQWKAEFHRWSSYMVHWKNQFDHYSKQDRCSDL

With `CCN(C)C(=O)Oc1cccc(/C=C2\Cc3cc(OC)c(OC)cc3C2=O)c1` [AP5, (E)-3-((5,6-dimethoxy-1-oxo-1,3-dihydro-2H-inden-2-ylidene)-methyl)phenylethyl(methyl)carbamate], the “ThT fluorescence intensity, disaggregation of pre-formed Aβ42 fibrils” value in assay [1] was “marked decline of ThT fluorescence intensity”. Besides, in assay [2], the preference index entry is on record as “marked elevation”.
